# Measured values from patent US10632125B2, “MTH1 inhibitors for treatment of inflammatory and autoimmune conditions” (THOMAS HELLEDAYS STIFTELSE FÖR MEDICINSK FORSKNING, priority 2014, dated 2020).
# Target: MTH1 (Homo sapiens, UniProt P36639)
# Experiment: MTH1 enzymatic assay (malachite green, coupled to pyrophosphatase)
# Format: biochemical
# Conditions: dGTP 100 μM, MTH1 6 nM; 96- or 384-well format; read-out: IC50
row,Structure (SMILES),IC50 [nM]
1,"Nc1nc(NCCc2ccc(S(N)(=O)=O)cc2)cc(-c2ccccc2CO)n1 [Example 509, 4-[2-({2-amino-6-[2-(hydroxymethyl)phenyl]pyrimidin-4-yl}amino)ethyl]benzene-1-sulfonamide]",< 200
2,"Cc1cccc(-c2cc(NCCNc3cc(C(N)=O)ccn3)nc(N)n2)c1C [Example 514, 2-[(2-{[2-amino-6-(2,3-dimethylphenyl)pyrimidin-4-yl]amino}ethyl)amino]pyridine-4-carboxamide]",< 200
3,"Cc1cccc(-c2cc(NCCc3c[nH]c4ccc(O)cc34)nc(N)n2)c1C [Example 517, 3-(2-{[2-amino-6-(2,3-dimethylphenyl)pyrimidin-4-yl]amino}ethyl)-1H-indol-5-ol]",< 200
4,"Cc1cccc(-c2cc(NCCc3c[nH]c4ccc(OCc5ccccc5)cc34)nc(N)n2)c1C [Example 518, 4-N-{2-[5-(benzyloxy)-1H-indol-3-yl]ethyl}-6-(2,3-dimethylphenyl)pyrimidine-2,4-diamine]",< 200
5,"COc1ccc2[nH]cc(CCNc3cc(-c4cccc(C)c4C)nc(N)n3)c2c1 [Example 520, 6-(2,3-dimethylphenyl)-4-N-[2-(5-methoxy-1H-indol-3-yl)ethyl]pyrimidine-2,4-diamine]",< 200
6,"Cc1cccc(-c2cc(NCCc3c[nH]c4c(C)cccc34)nc(N)n2)c1C [Example 521, 6-(2,3-dimethylphenyl)-4-N-[2-(7-methyl-1H-indol-3-yl)ethyl]pyrimidine-2,4-diamine]",< 200
7,"COc1ccc2c(CCNc3cc(-c4cccc(C)c4C)nc(N)n3)c[nH]c2c1 [Example 523, 6-(2,3-dimethylphenyl)-4-N-[2-(6-methoxy-1H-indol-3-yl)ethyl]pyrimidine-2,4-diamine]",< 200
8,"CC1CC1Nc1cc(-c2cccc(Cl)c2Cl)nc(N)n1 (stereo not drawn) [Example 524, 6-(2,3-dichlorophenyl)-4-N-(2-methylcyclopropyl)pyrimidine-2,4-diamine]",< 200
9,"Nc1nc(NCCc2ccc(S(N)(=O)=O)cc2)cc(C2=CCN(S(=O)(=O)C3CC3)CC2)n1 [Example 555, 4-[2-({2-amino-6-[1-(cyclopropanesulfonyl)-1,2,3,6-tetrahydropyridin-4-yl]pyrimidin-4-yl}amino)ethyl]benzene-1-sulfonamide]",< 200
10,"Cc1cccc(-c2cc(NC3CNC3)nc(N)n2)c1C [Example 589, 4-N-(azetidin-3-yl)-6-(2,3-dimethylphenyl)pyrimidine-2,4-diamine]",2000 to 10000
11,"Cc1c(Cl)cccc1-c1cc(NCCc2ccc(NC(=O)C3CC3)cc2)nc(N)n1 [Example 597, N-[4-(2-{[2-amino-6-(3-chloro-2-methylphenyl)pyrimidin-4-yl]amino}ethyl)phenyl]cyclopropanecarboxamide]",< 200
12,"Cc1cccc(-c2cc(NCCc3cccs3)nc(N)n2)c1C [Example 598, 6-(2,3-dimethylphenyl)-4-N-[2-(thiophen-2-yl)ethyl]pyrimidine-2,4-diamine]",< 200
13,"Cc1c(Cl)cccc1-c1cc(NCCc2ccc(Cl)c(Cl)c2)nc(N)n1 [Example 599, 6-(3-chloro-2-methylphenyl)-4-N-[2-(3,4-dichlorophenyl)ethyl]pyrimidine-2,4-diamine]",< 200
14,"Cc1c(Cl)cccc1-c1cc(NCCc2ccc(Cl)cc2Cl)nc(N)n1 [Example 600, 6-(3-chloro-2-methylphenyl)-4-N-[2-(2,4-dichlorophenyl)ethyl]pyrimidine-2,4-diamine]",< 200
15,"Cc1c(Cl)cccc1-c1cc(NCCc2ccc(C#N)cc2)nc(N)n1 [Example 625, 4-(2-{[2-amino-6-(3-chloro-2-methylphenyl)pyrimidin-4-yl]amino}ethyl)benzonitrile]",< 200
16,"Cc1c(Cl)cccc1-c1cc(NCCNc2ccc3c(=O)[nH]cnc3c2)nc(N)n1 [Example 632, 7-[2-[[2-amino-6-(3-chloro-2-methyl-phenyl)pyrimidin-4-yl]amino]ethylamino]-3H-quinazolin-4-one]",< 200
17,"Cc1c(Cl)cccc1-c1cc(NCCNC(=O)Nc2cccc(F)c2)nc(N)n1 [Example 663, 1-[2-[[2-amino-6-(3-chloro-2-methyl-phenyl)pyrimidin-4-yl]amino]ethyl]-3-(3-fluorophenyl)urea]",< 200
18,Cc1c(Cl)cccc1-c1cc(NC2CN(c3ccc(S(N)(=O)=O)cc3)C2)nc(N)n1 [Example 667],2000 to 10000
19,"C=CCCNc1cc(-c2cccc(Cl)c2C)nc(N)n1 [Example 682, N4-but-3-enyl-6-(3-chloro-2-methyl-phenyl)pyrimidine-2,4-diamine]",< 200
20,"Cc1c(Cl)cccc1-c1cc(NCCNc2cccc3c(S(=O)(=O)O)cccc23)nc(N)n1 [Example 683, 5-[2-[[2-amino-6-(3-chloro-2-methyl-phenyl)pyrimidin-4-yl]amino]ethylamino]naphthalene-1-sulfonic acid]",< 200
21,"Cc1c(Cl)cccc1-c1cc(NCCOCC2CC2)nc(N)n1 [Example 684, 6-(3-chloro-2-methyl-phenyl)-N4-[2-(cyclopropylmethoxy)ethyl]pyrimidine-2,4-diamine]",< 200
22,"Cc1c(Cl)cccc1-c1cc(NCC=C(F)F)nc(N)n1 [Example 686, 6-(3-chloro-2-methyl-phenyl)-N4-(3,3-difluoroallyl)pyrimidine-2,4-diamine]",< 200
23,"Cc1c(Cl)cccc1-c1cc(NCCC(F)(F)Br)nc(N)n1 [Example 687, N4-(3-bromo-3,3-difluoro-propyl)-6-(3-chloro-2-methyl-phenyl)pyrimidine-2,4-diamine]",< 200
24,"Cc1c(Cl)cccc1-c1cc(NCC[S+]([O-])CCc2ccccc2)nc(N)n1 (stereo not drawn) [Example 692, 6-(3-chloro-2-methyl-phenyl)-N4-[2-(2-phenylethylsulfinyl)ethyl]pyrimidine-2,4-diamine]",2000 to 10000
25,"Cc1cc(CSCCNc2cc(-c3cccc(Cl)c3C)nc(N)n2)no1 [Example 700, 6-(3-chloro-2-methyl-phenyl)-N4-[2-[(5-methylisoxazol-3-yl)methylsulfanyl]ethyl]pyrimidine-2,4-diamine]",< 200
26,"Cc1noc(C)c1CCNc1cc(-c2cccc(Cl)c2C)nc(N)n1 [Example 701, 6-(3-chloro-2-methyl-phenyl)-N4-[2-(3,5-dimethylisoxazol-4-yl)ethyl]pyrimidine-2,4-diamine]",< 200
27,"CCCNc1cc(-c2cccc(Cl)c2C)nc(N)n1 [Example 702, 6-(3-chloro-2-methyl-phenyl)-N4-propyl-pyrimidine-2,4-diamine]",< 200

# Further lines, results first:
row,IC50 [nM],Structure (SMILES)
1,< 200,"CNc1cc(-c2ccccc2CO)nc(N)n1 [Example 508, {2-[2-amino-6-(methylamino)pyrimidin-4-yl]phenyl}methanol]"
2,< 200,"Cc1c(NC(=O)c2ccc(Cl)cc2O)cccc1-c1cc(NCCc2ccc(S(C)(=O)=O)cc2)nc(N)n1 [Example 516, N-[3-(2-amino-6-{[2-(4-methanesulfonylphenyl)ethyl]amino}pyrimidin-4-yl)-2-methylphenyl]-4-chloro-2-hydroxybenzamide]"
3,< 200,"Cc1cccc(-c2cc(NCCc3c[nH]c4ccc(Br)cc34)nc(N)n2)c1C [Example 519, 4-N-[2-(5-bromo-1H-indol-3-yl)ethyl]-6-(2,3-dimethylphenyl)pyrimidine-2,4-diamine]"
4,< 200,"Cc1cccc(-c2cc(NCCc3c[nH]c4c(OCc5ccccc5)cccc34)nc(N)n2)c1C [Example 522, 4-N-{2-[7-(benzyloxy)-1H-indol-3-yl]ethyl}-6-(2,3-dimethylphenyl)pyrimidine-2,4-diamine]"
5,< 200,"Cc1cccc(-c2cc(NCCNc3ccc(-c4nnn[nH]4)cc3)nc(N)n2)c1C [Example 543, 6-(2,3-dimethylphenyl)-4-N-(2-{[4-(1H-1,2,3,4-tetrazol-5-yl)phenyl]amino}ethyl)pyrimidine-2,4-diamine]"
6,< 200,"COc1ccc(NCCNc2cc(-c3cccc(C)c3C)nc(N)n2)cc1S(=O)(=O)O [Example 545, 5-[(2-{[2-amino-6-(2,3-dimethylphenyl)pyrimidin-4-yl]amino}ethyl)amino]-2-methoxybenzene-1-sulfonic Acid]"
7,< 200,"Cc1cccc(-c2cc(NCCNc3cc(-c4cccc(C)c4C)nc(N)n3)nc(N)n2)c1C [Example 561, 4-N-(2-{[2-amino-6-(2,3-dimethylphenyl)pyrimidin-4-yl]amino}ethyl)-6-(2,3-dimethylphenyl)pyrimidine-2,4-diamine]"
8,< 200,"Cc1c(Cl)cccc1-c1cc(NC2CC2C)nc(N)n1 (stereo not drawn) [Example 581, 6-(3-chloro-2-methylphenyl)-4-N-(2-methylcyclopropyl)pyrimidine-2,4-diamine]"
9,< 200,"CNc1cc(C#Cc2ccccc2)nc(N)n1 [Example 626, 4-N-methyl-6-(2-phenylethynyl)pyrimidine-2,4-diamine]"
10,< 200,"Cc1c(Cl)cccc1-c1cc(NCCc2ccc(N)cc2)nc(N)n1 [Example 642, N4-[2-(4-aminophenyl)ethyl]-6-(3-chloro-2-methyl-phenyl)pyrimidine-2,4-diamine]"
11,< 200,"Cc1c(Cl)cccc1-c1cc(NCCNS(=O)(=O)c2cccc(F)c2)nc(N)n1 [Example 660, N-[2-[[2-amino-6-(3-chloro-2-methyl-phenyl)pyrimidin-4-yl]amino]ethyl]-3-fluoro-benzenesulfonamide]"
12,< 200,"Cc1c(Cl)cccc1-c1cc(NCCCNC(=O)OC(C)(C)C)nc(N)n1 [Example 668, tert-butyl N-[3-[[2-amino-6-(3-chloro-2-methyl-phenyl)pyrimidin-4-yl]amino]propyl]carbamate]"
13,< 200,"Cc1c(Cl)cccc1-c1cc(NCCCCc2ccccc2)nc(N)n1 [Example 680, 6-(3-chloro-2-methyl-phenyl)-N4-(4-phenylbutyl)pyrimidine-2,4-diamine]"
14,< 200,"Cc1c(Cl)cccc1-c1cc(NCCC2=CCCCC2)nc(N)n1 [Example 681, 6-(3-chloro-2-methyl-phenyl)-N4-[2-(cyclohexen-1-yl)ethyl]pyrimidine-2,4-diamine]"
15,< 200,"Cc1c(Cl)cccc1-c1cc(NCCSCCc2ccccc2)nc(N)n1 [Example 690, 6-(3-chloro-2-methylphenyl)-N4-{2-[(2-phenylethyl)sulfanyl]ethyl}pyrimidine-2,4-diamine]"
